Drawing on ChEMBL document CHEMBL4417631, “Oral peptide inhibitors of interleukin-23 receptor and their use to treat inflammatory bowel diseases” (2017), this text covers IC50 for 16 compounds.

As a reminder, the IC50 is the midpoint of a concentration-inhibition curve. A high value points to lower potency.

Where a SMILES comes first, the peptide text is derived from it.

The target in this test is T1, Interleukin-23 receptor (Homo sapiens, UniProt Q5VWK5).
T1 sequence (Q5VWK5 whole entry): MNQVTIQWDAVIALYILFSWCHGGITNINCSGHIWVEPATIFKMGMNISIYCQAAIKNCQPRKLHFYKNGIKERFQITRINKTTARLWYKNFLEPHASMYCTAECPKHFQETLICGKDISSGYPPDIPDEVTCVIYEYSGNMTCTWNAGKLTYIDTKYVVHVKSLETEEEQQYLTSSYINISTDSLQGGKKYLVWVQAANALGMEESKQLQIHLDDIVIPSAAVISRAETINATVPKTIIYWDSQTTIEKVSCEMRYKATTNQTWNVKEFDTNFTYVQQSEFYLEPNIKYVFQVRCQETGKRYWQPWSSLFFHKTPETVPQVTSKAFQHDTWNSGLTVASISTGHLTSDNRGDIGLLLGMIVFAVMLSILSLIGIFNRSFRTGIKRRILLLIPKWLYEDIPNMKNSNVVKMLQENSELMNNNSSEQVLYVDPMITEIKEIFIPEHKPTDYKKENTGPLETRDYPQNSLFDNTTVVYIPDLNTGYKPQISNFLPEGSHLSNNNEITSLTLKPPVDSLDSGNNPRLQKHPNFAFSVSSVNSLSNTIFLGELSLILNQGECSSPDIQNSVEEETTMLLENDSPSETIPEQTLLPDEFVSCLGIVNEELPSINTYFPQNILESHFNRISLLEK
The test can be described thus: Inhibition of interleukin-23 binding to human interleukin-23 receptor incubated for 2 hrs by competitive binding ELISA.
Turning to `CC(=O)N[C@@H](CS)C(=O)N[C@@H](C)C(=O)N[C@@H](CC(=O)O)C(=O)N[C@@H](Cc1c[nH]c2ccccc12)C(=O)N[C@H](C(=O)N[C@@H](CS)C(=O)N[C@@H](Cc1ccc(O)cc1)C(=O)N[C@@H](Cc1c[nH]c2ccccc12)C(=O)N[C@@H](Cc1cnc[nH]1)C(=O)N[C@H](C(=O)N[C@@H](Cc1ccccc1)C(=O)NCC(=O)N[C@@H](CCC(=O)O)C(=O)N[C@@H](CCCNC(=N)N)C(N)=O)[C@@H](C)O)C(C)C`, the IC50 is < 500 nM.

The compound `CC(=O)N[C@@H](CS)C(=O)N[C@@H](C)C(=O)N[C@@H](CC(=O)O)C(=O)N[C@@H](Cc1c[nH]c2ccccc12)C(=O)N[C@H](C(=O)N[C@@H](CS)C(=O)N[C@@H](Cc1ccc(O)cc1)C(=O)N[C@@H](Cc1c[nH]c2ccccc12)C(=O)N[C@@H](Cc1cnc[nH]1)C(=O)N[C@H](C(=O)N[C@@H](Cc1ccccc1)C(=O)NCC(=O)N[C@@H](C)C(=O)N1CC[C@H]1C(=O)N[C@H](CCCCN)C(=O)O)[C@@H](C)O)C(C)C` gave an IC50 of 100 to 1000 nM.

For the compound `CC(=O)N[C@@H](CS)C(=O)N[C@@H](CCC(N)=O)C(=O)N[C@H](C(=O)N[C@@H](Cc1c[nH]c2ccccc12)C(=O)N[C@@H](CCC(N)=O)C(=O)N[C@@H](CS)C(=O)N[C@@H](Cc1ccc(O)cc1)C(=O)N[C@@H](Cc1c[nH]c2ccccc12)C(=O)N(C)[C@@H](CCCNC(=N)N)C(=O)N[C@@H](CCC(=O)O)C(=O)N[C@@H](CC(N)=O)C(=O)NCC(=O)NCCOCC(=O)N[C@H](CCCCN)C(N)=O)[C@@H](C)O`, the IC50 is > 1000 nM.

With `CC(=O)N[C@@H](C)C(=O)N[C@H](C(=O)N[C@@H](CC(=O)O)C(=O)N[C@@H](Cc1c[nH]c2ccccc12)C(=O)N[C@H](C(=O)N[C@H](C(=O)N[C@@H](Cc1ccc(O)cc1)C(=O)N[C@@H](Cc1c[nH]c2ccccc12)C(=O)N[C@@H](CCCNC(=N)N)C(=O)N[C@@H](CCCCN)C(=O)N[C@@H](Cc1ccccc1)C(=O)NCC(=O)NCCOCC(=O)N[C@H](CCCCN)C(N)=O)C(C)(C)S)C(C)C)C(C)(C)S`, the IC50 is > 30000 nM.

As for `CC(=O)N[C@H]1CCSC[C@@H](C(=O)N[C@@H](Cc2ccc(OCCN)cc2)C(=O)N[C@@H](Cc2ccc3ccccc3c2)C(=O)N[C@@](C)(CCCCN)C(=O)N[C@@H](CCC(=O)O)C(=O)N[C@@H](CC(N)=O)C(=O)NCC(N)=O)NC(=O)[C@H](CCC(N)=O)NC(=O)[C@H](c2ccc(OCCN)cc2)NC(=O)[C@H]([C@@H](C)O)NC(=O)[C@H](CCC(N)=O)NC1=O`, the IC50 is > 3000 nM.

In turn, `CC(=O)N[C@@H](CS)C(=O)N[C@@H](C)C(=O)N[C@@H](CC(=O)O)C(=O)N[C@@H](Cc1c[nH]c2ccccc12)C(=O)N[C@H](C(=O)N[C@@H](CS)C(=O)N[C@@H](Cc1ccc(O)cc1)C(=O)N[C@@H](Cc1cc(F)cc(F)c1)C(=O)N[C@@H](CCCN)C(=O)N[C@@H](CN)C(=O)N[C@@H](Cc1ccccc1)C(=O)NCC(=O)NCCOCC(=O)N[C@H](CCCCN)C(N)=O)C(C)C` gave an IC50 of 6000 nM.

Turning to `CC(=O)N[C@@H](CS)C(=O)N[C@@H](C)C(=O)N[C@@H](CC(=O)O)C(=O)N[C@@H](Cc1c[nH]c2ccccc12)C(=O)N[C@H](C(=O)N[C@@H](CS)C(=O)N[C@@H](Cc1ccc(O)cc1)C(=O)N[C@@H](Cc1c[nH]c2ccccc12)C(=O)N(C)[C@@H](Cc1cnc[nH]1)C(=O)N[C@H](C(=O)N[C@@H](Cc1ccccc1)C(=O)NCC(=O)NCCOCC(=O)N[C@H](CCCCN)C(N)=O)[C@@H](C)O)C(C)C`, the IC50 was > 1000 nM.

For `N=C(N)NCCC[C@H](NC(=O)[C@H](Cc1cnc[nH]1)NC(=O)[C@H](Cc1c[nH]c2ccccc12)NC(=O)[C@H](Cc1ccc(O)cc1)NC(=O)[C@H](CS)NC(=O)[C@H](CCC(=O)O)NC(=O)[C@H](Cc1c[nH]c2ccccc12)NC(=O)[C@H](CC(N)=O)NC(=O)[C@@H]1CCCN1C(=O)[C@@H](N)CS)C(=O)N[C@@H](Cc1ccccc1)C(=O)NCC(N)=O` (H-CPNWECYWHRFG-NH2), the IC50 lay in the range of 500 to 1000 nM.

`CC(=O)N[C@@H](CS)C(=O)N[C@@H](C)C(=O)N[C@@H](CC(=O)O)C(=O)N[C@@H](Cc1c[nH]c2ccccc12)C(=O)N[C@H](C(=O)N[C@@H](CS)C(=O)N[C@@H](Cc1ccc(O)cc1)C(=O)NC1(C(=O)N[C@@H](Cc2cnc[nH]2)C(=O)N[C@H](C(=O)N[C@@H](Cc2ccccc2)C(=O)NCC(=O)NCCOCC(=O)N[C@H](CCCCN)C(N)=O)[C@@H](C)O)Cc2ccccc2C1)C(C)C`: the IC50 was > 1000 nM.

On to `CC(C)[C@H](NC(=O)[C@H](Cc1c[nH]c2ccccc12)NC(=O)[C@H](CC(=O)O)NC(=O)[C@H](C)NC(=O)[C@@H](N)CS)C(=O)N[C@@H](CS)C(=O)N[C@@H](Cc1ccc(O)cc1)C(=O)N[C@@H](Cc1cccc2ccccc12)C(=O)N[C@@H](Cc1cnc[nH]1)C(=O)N[C@H](C(=O)N(C)[C@@H](Cc1ccccc1)C(N)=O)[C@@H](C)O`, for which the IC50 was > 1000 nM.

As to `CC(=O)NCCCC[C@H](NC(=O)[C@](C)(CCCCN)NC(=O)[C@H](Cc1ccc2ccccc2c1)NC(=O)[C@@H](NC(=O)[C@H](CCC(N)=O)NC(=O)[C@H](Cc1c[nH]c2ccccc12)NC(=O)[C@@H](NC(=O)[C@H](CCC(N)=O)NC(=O)[C@@H](NC(C)=O)C(C)(C)S)[C@@H](C)O)C(C)(C)S)C(=O)N[C@@H](CC(N)=O)C(=O)NCC(N)=O`, the IC50 was > 10000 nM.

`CC(=O)N[C@@H](CS)C(=O)N[C@@H](C)C(=O)N[C@@H](CC(=O)O)C(=O)N[C@@H](Cc1c[nH]c2ccccc12)C(=O)N[C@H](C(=O)N[C@@H](CS)C(=O)N[C@@H](Cc1ccc(O)cc1)C(=O)N[C@@H](Cc1c[nH]c2ccccc12)C(=O)N[C@@H](Cc1cnc[nH]1)C(=O)N[C@H](C(=O)N[C@@H](CCCCN)C(=O)NCC(=O)O)[C@@H](C)O)C(C)C`: the IC50 is > 1000 nM.

Regarding `CC(=O)N[C@@H](CS)C(=O)N[C@@H](CCC(N)=O)C(=O)N[C@H](C(=O)N[C@@H](Cc1c[nH]c2ccccc12)C(=O)N[C@@H](CCC(N)=O)C(=O)N[C@@H](CS)C(=O)N[C@@H](Cc1ccc(O)cc1)C(=O)N[C@H](CC(=O)N[C@@H](CCCNC(=N)N)C(=O)N[C@H](C(=O)N[C@@H](CC(N)=O)C(=O)NCC(=O)NCCOCC(=O)N[C@H](CCCCN)C(N)=O)C(C)C)Cc1ccc(F)cc1)[C@@H](C)O`, the IC50 is > 30000 nM.

For the compound `CC(=O)N[C@@H](CC(=O)O)C(=O)N[C@H](C(=O)N1CCC[C@H]1C(=O)N[C@@H](CCCNC(=N)N)C(=O)N[C@@H](CS)C(=O)N[C@@H](CCCNC(=N)N)C(=O)N[C@H](C(=O)N[C@@H](Cc1c[nH]c2ccccc12)C(=O)N[C@@H](CCC(=O)O)C(=O)N[C@@H](CS)C(=O)N[C@@H](Cc1ccc(O)cc1)C(=O)N[C@@H](Cc1c[nH]c2ccccc12)C(=O)N[C@@H](Cc1cnc[nH]1)C(=O)N[C@H](C(=O)N[C@@H](Cc1ccccc1)C(=O)NCC(N)=O)[C@@H](C)O)[C@@H](C)O)[C@@H](C)O`, the IC50 is 500 to 1000 nM.

With `CC(=O)N[C@H]1CCSC[C@@H](C(=O)N[C@@H](Cc2ccc(OCCN)cc2)C(=O)N[C@@H](Cc2ccc3ccccc3c2)C(=O)N[C@@](C)(CCCCN)C(=O)N[C@@H](CCC(=O)O)C(=O)N[C@@H](CC(N)=O)C(=O)NCC(N)=O)NC(=O)[C@H](CCC(N)=O)NC(=O)[C@H](c2ccc(Cl)c(Cl)c2)NC(=O)[C@H]([C@@H](C)O)NC(=O)[C@H](CCC(N)=O)NC1=O`, the IC50 was > 3000 nM.

For `CC(=O)N[C@@H](CS)C(=O)N[C@H](C(=O)N[C@H](C(=O)N[C@@H](Cc1c[nH]c2ccccc12)C(=O)N[C@H](C(=O)N[C@@H](CS)C(=O)N[C@@H](Cc1ccc(O)cc1)C(=O)N[C@@H](Cc1c[nH]c2ccccc12)C(=O)N[C@@H](Cc1cnc[nH]1)C(=O)N[C@@H](CCC(N)=O)C(=O)N[C@@H](Cc1ccc(O)cc1)C(=O)NCC(N)=O)[C@@H](C)O)[C@@H](C)O)[C@@H](C)O` (Ac-CTTWTCYWHQYG-NH2), the IC50 is < 500 nM.
